We go through one compound from patent US10954287B2, “Ras binding peptides and methods of use” (Ra Pharmaceuticals, Inc., priority 2016, dated 2021).

pIC50: −log10 of the molar value. Like-named read-outs stand apart in the source and are kept apart here.

The target in data set [1] is T1, H-Ras (Homo sapiens, UniProt P01112, G12V).
T1 construct: made in house; host or cells: E. coli BL21 (DE3)
As to the kind of experiment: Differential scanning fluorimetry (DSF). In kind it is binding. The settings on record: Ras 5 μM, peptide 20 μM, FIG. 8A. The procedure:
Differential scanning fluorimetry (DSF) is based on denaturation of the protein in the absence or presence of a ligand, exposing hydrophobic residues that can be detected with high sensitivity with a fluorescent dye. […] DSF was performed on a CFX 96-well plate, real-time PCR instrument (Bio-Rad, Hercules, Calif.) according to Nettleship et al. [Nettleship, J. E., Brown, J., Groves, M. R., and Geerlof, A. (2008) Methods for protein characterization by mass spectrometry, thermal shift (ThermoFluor) assay, and multiangle or static light scattering. Methods Mol. Biol. 426: 299-318), the contents of which are incorporated herein by reference in their entirety]. SYPRO orange was purchased from Life Technologies (Carlsbad, Calif.). After incubation of Ras (5 μM) and peptide (20 μM) at room temperature for 15 minutes in 20 mM Tris-HCl (pH 8), 150 mM NaCl, 1 mM MgCl2, 2 mM DTT, and 0.2% dimethyl sulfoxide, SYPRO orange was added to the final concentration of 10× (original stock at 5000×). The mixture was subsequently heated in Bio-Rad CFX 96 PCR instrument from 25 to 95° C. in increments of 0.3° C./10 s. Fluorescence intensity was measured using excitation and emission wavelengths of 483 and 610 nm, respectively. Changes in protein thermal stability (ATm) upon peptide binding were analyzed by using Bio-Rad CFX Manager Software provided by the manufacturer.

Data set [2] in a line: Compound stability in rat plasma. Format: in vitro ADME. The settings on record: serum (method text and assay name say plasma), 37° C., pH 7.4. The procedure: (§1) Compounds were assayed for stability in mouse and rat plasma under the following conditions. Plasma was adjusted to pH 7.4. DMSO stocks at 10 mM concentration were prepared for the test compounds. Aliquots of the DMSO solutions were dosed into 1 mL of plasma, which had been pre-warmed to 37° C., at a final test compound concentration of 10 μM. The vials were kept in a benchtop Thermomixer® (Eppendorf, Hauppauge, N.Y.) for the duration of the experiment. Aliquots (100 μL) were taken at each timepoint and added to a 96-well plate that had been pre-filled with 300 μL of an acetonitrile solution containing mixture of the internal standards (metoprolol, propranalol and warfarin each at 500 ng/mL). Samples were stored at 4° C. until the end of the experiment. After the final timepoint was sampled, the plate was mixed and then centrifuged at 3,000 rpm for 10 minutes. Aliquots of the supernatant were removed and analyzed by LC-HRAMS.

Data set [3] deals with GMPPNP-loaded H-Ras or GTP-loaded K-Ras. As to the kind of experiment: Fluorescence polarization competition assay with TAMRA-labeled probe R4007. Particulars: 120 nM Ras. Format: binding, human. Put shortly: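 120 nM GMPPNP-loaded H-Ras or GTP-loaded K-Ras was preincubated with 30 nM TAMRA-labeled R4007 probe for 20 min at room temperature in Tris pH 7.5 buffer with MgCl2, EDTA and Triton X-100. Serially diluted competitor was then added for 60 min. Polarization was read at 535/595 nm, with Ki from a one-site Ki fit and IC50 from probe displacement.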

The nature of data set [4]: Compound stability in mouse plasma. In kind it is in vitro ADME. Particulars: serum (method text and assay name say plasma), 37° C., pH 7.4. How it is done:
as §1

Data set [5] addresses T2, GST-tagged RAF-RBD and biotinylated H-Ras loaded with GMPPNP (Homo sapiens, UniProt P01112, G12V).
T2 construct: made in house; host or cells: E. coli BL21 (DE3)
Nature of the data set: TR-FRET of the interaction between GST-tagged RAF-RBD and biotinylated H-Ras. The settings on record: 12.5 nM Bio-H-Ras GMPPNP, 10 nM GST-RAF-RBD, FIG. 8C. Format: binding. How it is done: The interaction between GST-tagged RAF-RBD and biotinylated H-Ras (Bio-H-Ras) loaded with GMPPNP was detected using TR-FRET. Assays were performed in 384 well plates (Proxiplate-384 plus, Perkin Elmer, Waltham, Mass.). Bio-H-Ras GMPPNP was diluted in assay buffer (50 mM Tris-HCl, pH 7.5, 5 mM MgCl2, 0.0025% Tween-80, 1 mM DTT, and 50 nM GMPPNP) at a final concentration of 12.5 nM. R4000 was serially diluted in DMSO, then diluted in assay buffer and incubated with Bio-H-Ras GMPPNP for 30 minutes at room temperature (1% DMSO final). GST-RAF-RBD was added to the assay (10 nM final) and incubated 60 minutes at room temperature. Europium cryptate conjugated-anti-GST (donor; Perkin Elmer, Waltham, Mass.) and streptavidin conjugated to SureLight-Allophycocyanin (acceptor; Perkin Elmer, Waltham, Mass.) was added to the wells at final concentrations of 1 nM and 1.25 nM, respectively. Reaction mixtures were incubated at room temperature for 2 hours then detected using an EnVision Multilabel Plate Reader (Perkin Elmer, Waltham, Mass.) with excitation at 340 nm and emission at 615 nm (donor) and 665 nm (acceptor). FRET ratios (615 emission/665 emission) were calculated per well. Data was analyzed using GraphPad Prism, and IC50 values were generated by fitting dose response data to a 4 parameter fit sigmoidal dose response curve. […]

For `CCC[C@H](NC(C)=O)C(=O)N[C@H]1CSCc2cccc(c2)CSC[C@@H](C(N)=O)NC(=O)CN(C)C(=O)[C@H](Cc2ccc(F)cc2)N(C)C(=O)[C@H](Cc2ccc(O)cc2)NC(=O)[C@H](Cc2c[nH]c3ncccc23)NC(=O)[C@H](c2ccccc2)NC(=O)[C@H](C)N(C)C(=O)[C@H](Cc2cnc[nH]2)NC(=O)[C@H](CCCCN)NC(=O)[C@H](C(C)(C)C)NC(=O)[C@H](Cc2ccc(O)cc2)NC1=O` (relative stereo) [Compound R4000, ACE-NVA-CYS*-TYR-TBG-LYS-HIS-NMA-PHG-7AW-TYR-MFF-SAR-CYS*-NH2], in data set [1], the “Δ Tm” value was “+11 °C”. In addition, the values for the half-life at 10 μM in data set [2] and in data set [4] were 2.1 h and 5 h, respectively. In addition, the pIC50 in data set [3] (30 nM R4007, FIG. 7B, read-out: half-maximal inhibitory concentration (IC50) for displacement of R4007) was 7.70. The IC50 in data set [3] (30 nM probe R4007, 60 minutes at room temperature, read-out: Probe displacement (nM IC50)) turned out to be 28.6 nM. Besides, in data set [5], the “blocking of H-Ras binding to RAF” value is reported as “does not block binding to RAF”.
